Source: US20200288710A1, “SUBSTITUTED SULPHONAMIDES FOR CONTROLLING ANIMAL PESTS” (BAYER CROPSCIENCE AKTIENGESELLSCHAFT, priority 2016, published 2020)

Assays:
Assay type in all cases: in vivo
Meloidogyne incognita = Meloidogyne incognita test; conditions: 336 h, lettuce, after 14 days, read-out: nematicidal efficacy (formation of galls)
Protocol: Meloidogyne incognita Test Solvent: 125.0 parts by weight of acetone To produce a suitable active compound preparation, 1 part by weight of active compound is mixed with the stated amount of solvent and the concentrate is diluted with water to the desired concentration. Vessels are filled with sand, active compound solution, an egg/larvae suspension of the southern rootknot nematode (Meloidogyne incognita) and lettuce seeds. The lettuce seeds germinate and the plants develop. The galls develop on the roots. After 14 days, the nematicidal efficacy in % is determined by the formation of galls. 100% means that no galls were found; 0% means that the number of galls on the treated plants corresponds to the untreated control.

Myzus persicae [1] = experiment: Myzus persicae spray test (Chinese cabbage leaf discs); conditions: foliar, 120 h, 500 g/ha, after 5-6 days, read-out: efficacy
Protocol: Myzus persicae—Spray Test Solvent: 78 parts by weight of acetone • • 1.5 parts by weight of dimethylformamide Emulsifier: alkylaryl polyglycol ether To produce a suitable preparation of active compound, 1 part by weight of active compound is dissolved using the specified parts by weight of solvent and made up with water containing an emulsifier concentration of 1000 ppm until the desired concentration is attained. To produce further test concentrations, the formulation is diluted with emulsifier-containing water. Discs of Chinese cabbage leaves (Brassica pekinensis) infested by all stages of the green peach aphid (Myzus persicae) are sprayed with an active compound preparation of the desired concentration. After 5-6 days, the efficacy in % is determined. 100% means that all the aphids have been killed; 0% means that no aphids have been killed.

Myzus persicae [2] = experiment: Myzus persicae oral test; conditions: 120 h, 20 ppm, oral uptake, after 5 days, read-out: efficacy
Protocol: Myzus persicae—Oral Test Solvent: 100 parts by weight of acetone To produce a suitable preparation of active compound, 1 part by weight of active compound is dissolved using the specified parts by weight of solvent and made up with water until the desired concentration is attained. 50 μl of the active compound preparation are transferred into microtitre plates and made up to a final volume of 200 μl with 150 μl of IPL41 insect medium (33%+15% sugar). Subsequently, the plates are sealed with parafilm, which a mixed population of green peach aphids (Myzus persicae) within a second microtitre plate is able to puncture and imbibe the solution through it. After 5 days, the efficacy in % is determined. 100% means that all the aphids have been killed; 0% means that no aphids have been killed.

| Compound | pest or weed control at 20 ppm (Meloidogyne incognita) [%] | pest or weed control at 500 g/ha (Myzus persicae [1]) [%] | pest or weed control at 20 ppm (Myzus persicae [2]) [%] |
| --- | --- | --- | --- |
| CCc1[nH]c(-c2cccc(Cl)c2)nc1C(=O)NS(=O)(=O)c1ccccc1C [Example 129] | 90 | – | – |
| COc1cccc(OC(C)C)c1S(=O)(=O)NC(=O)c1cn(C)c(-c2c(F)cccc2F)n1 [Example 380] | 100 | – | – |
| Cc1cccc(C2CCCC2)c1S(=O)(=O)NC(=O)c1cn(C)c(-c2c(F)cccc2F)n1 [Example 362] | 100 | – | – |
| Cc1ccccc1S(=O)(=O)NC(=O)c1cn(C)c(-c2ccc(F)c(F)c2)n1 [Example 545] | 100 | – | – |
| Cc1ccccc1S(=O)(=O)NC(=O)c1cn(C)c(-c2csc3ccccc23)n1 [Example 530] | 90 | – | – |
| COc1ccccc1S(=O)(=O)NC(=O)c1cn(C)c(-c2ccc(F)c(F)c2)n1 [Example 546] | 100 | – | – |
| CCn1c(C(=O)NS(=O)(=O)c2ccccc2C)nc(-c2c(F)cccc2F)c1C [Example 417] | 100 | – | – |
| COc1cccc(S(C)(=O)=O)c1S(=O)(=O)NC(=O)c1cn(C)c(-c2c(F)cccc2F)n1 [Example 382] | 90 | – | – |
| CCc1[nH]c(-c2ccc(F)c(F)c2)nc1C(=O)NS(=O)(=O)c1ccccc1Cl [Example 471] | 90 | – | – |
| Cc1ccccc1S(=O)(=O)NC(=O)c1cn(C)c(-c2ccccc2C(C)C)n1 [Example 473] | 90 | – | – |
| COc1ccccc1S(=O)(=O)NC(=O)c1cn(C)c(-c2cccc3ccccc23)n1 [Example 480] | 90 | – | – |
| COc1ccccc1S(=O)(=O)NC(=O)c1cn(C)c(-c2ccccc2-c2ccccc2)n1 [Example 534] | 90 | – | – |
| Cc1ccccc1-c1nc(C(=O)NS(=O)(=O)c2ccccc2)cn1C [Example 50] | 90 | – | – |
| Cc1[nH]c(-c2ccc(F)cc2F)nc1C(=O)NS(=O)(=O)C(C)C [Example 622] | 90 | – | – |
| COc1ccc(C(C)(C)C)cc1S(=O)(=O)NC(=O)c1cn(C)c(-c2c(F)cccc2F)n1 [Example 392] | 90 | – | – |
| COc1ccc(Cl)c(S(=O)(=O)NC(=O)c2nc(-c3cccc(C(C)C)c3)[nH]c2C)c1 [Example 621] | 90 | – | – |
| COc1ccc(Cl)c(S(=O)(=O)NC(=O)c2nc(-c3c(F)cccc3Cl)[nH]c2C)c1 [Example 624] | 90 | – | – |
| Cn1cc(C(=O)NS(=O)(=O)c2ccccc2Cl)nc1-c1csc2ccccc12 [Example 522] | 90 | – | – |
| Cc1[nH]c(-c2ccc(Cl)c(Cl)c2)nc1C(=O)NS(=O)(=O)c1ccccc1Cl [Example 614] | 100 | – | – |

| Compound | pest or weed control at 20 ppm (Meloidogyne incognita) [%] | pest or weed control at 500 g/ha (Myzus persicae [1]) [%] | pest or weed control at 20 ppm (Myzus persicae [2]) [%] |
| --- | --- | --- | --- |
| CCOc1cccc(C(C)C)c1S(=O)(=O)NC(=O)c1cn(C)c(-c2c(F)cccc2F)n1 [Example 384] | 90 | – | – |
| CCSc1ccccc1-c1nc(C(=O)NS(=O)(=O)c2ccccc2C)cn1C [Example 475] | 90 | – | – |
| O=C(NS(=O)(=O)c1ccccc1Cl)c1cc(-c2ncccc2Cl)n(-c2ccccc2Cl)n1 [Example 264] | 100 | – | – |
| Cc1ccccc1NS(=O)(=O)NC(=O)c1cn(C)c(-c2c(F)cccc2F)n1 [Example 504] | 90 | – | – |
| COc1ccccc1S(=O)(=O)NC(=O)c1cn(C)c(-c2ccc(Cl)c(Cl)c2)n1 [Example 537] | 100 | – | – |
| CC(C)N(C)S(=O)(=O)NC(=O)c1cn(C)c(-c2c(F)cccc2F)n1 [Example 551] | 90 | – | – |
| Cn1c(C(=O)NS(=O)(=O)c2ccccc2Br)cnc1-c1c(F)cccc1F [Example 162] | – | 90 | 100 |
| Cn1cc(C(=O)NS(=O)(=O)c2ccccc2Cl)nc1-c1c(F)cccc1C#N [Example 501] | – | 100 | 100 |
| Cn1cc(C(=O)NS(=O)(=O)c2c(Cl)cccc2C(F)(F)F)nc1-c1ncccc1F [Example 609] | – | 90 | 100 |
| COc1cc(C)ccc1S(=O)(=O)NC(=O)c1cn(C)c(-c2c(F)cccc2F)n1 [Example 447] | – | 90 | 100 |
| Cn1cc(C(=O)NS(=O)(=O)c2ccccc2C(F)(F)F)nc1-c1ccccc1F [Example 30] | – | 90 | 100 |
| COc1ccccc1S(=O)(=O)NC(=O)c1cn(C)c(-c2ncccc2Cl)n1 [Example 574] | – | 100 | 100 |
| Cn1cc(C(=O)NS(=O)(=O)c2ccccc2C(F)(F)F)nc1-c1c(F)cccc1F [Example 26] | – | 100 | 100 |
| Cn1cc(C(=O)NS(=O)(=O)c2ccccc2F)nc1-c1ccccc1Cl [Example 57] | – | 100 | 100 |
| Cc1ccccc1S(=O)(=O)NC(=O)c1cc(C)n(-c2ncccc2Br)n1 [Example 297] | – | 90 | 100 |
| COc1ccc(Cl)c(S(=O)(=O)NC(=O)c2nc(-c3c(F)cccc3F)n(C)n2)c1 [Example 12] | – | 90 | 90 |
| COc1ccccc1S(=O)(=O)NC(=O)c1cn(C)c(-c2ccccc2Cl)n1 [Example 59] | – | 90 | 100 |
| Cn1cc(C(=O)NS(=O)(=O)c2ccccc2Cl)nc1-c1ccccc1F [Example 94] | – | 100 | 100 |
| COc1ccc(Br)cc1S(=O)(=O)NC(=O)c1cn(C)c(-c2cccc(Cl)c2Cl)n1 [Example 559] | – | 100 | 100 |

| Compound | pest or weed control at 20 ppm (Meloidogyne incognita) [%] | pest or weed control at 500 g/ha (Myzus persicae [1]) [%] | pest or weed control at 20 ppm (Myzus persicae [2]) [%] |
| --- | --- | --- | --- |
| COc1ccc(Cl)c(S(=O)(=O)NC(=O)c2cc(C)n(-c3ncccc3Br)n2)c1 [Example 301] | – | 100 | 90 |
| COc1ccc(Cl)c(C)c1S(=O)(=O)NC(=O)c1cn(C)c(-c2c(F)cccc2F)n1 [Example 433] | – | 90 | 100 |
| COc1ccccc1S(=O)(=O)NC(=O)c1cn(C)c(-c2cccnc2Cl)n1 [Example 492] | – | 100 | 100 |
| Cc1cc(C(=O)NS(=O)(=O)c2c(Cl)cccc2Cl)nn1-c1ncccc1Cl [Example 268] | – | 90 | 100 |
| Cn1cc(C(=O)NS(=O)(=O)c2c(Cl)cccc2Br)nc1-c1ncccc1Cl [Example 589] | – | 100 | 100 |
| CCc1ccc(OC)c(S(=O)(=O)NC(=O)c2cn(C)c(-c3ccccc3Cl)n2)c1 [Example 278] | – | 100 | 100 |
| CCc1[nH]c(-c2c(F)cccc2F)nc1C(=O)NS(=O)(=O)c1ccccc1Cl [Example 124] | – | 90 | 100 |
| Cc1ccsc1S(=O)(=O)NC(=O)c1cn(C)c(-c2ncccc2Cl)n1 [Example 592] | – | 100 | 100 |
| Cn1cc(C(=O)NS(=O)(=O)c2ccccc2Cl)nc1-c1ccccc1S(C)(=O)=O [Example 483] | – | 90 | 100 |
| Cc1ccccc1-c1nc(C(=O)NS(=O)(=O)c2ccccc2Cl)cn1C [Example 97] | – | 100 | 100 |
| COc1ccccc1S(=O)(=O)NC(=O)c1cn(C)c(-c2c(F)cccc2F)n1 [Example 116] | – | 100 | 100 |
| CCS(=O)(=O)NC(=O)c1cn(-c2ccccc2)c(-c2ccccc2Cl)n1 [Example 75] | – | 100 | 90 |
| CCn1cc(S(=O)(=O)NC(=O)c2cn(C)c(-c3c(F)cccc3F)n2)c(C)n1 [Example 181] | – | 100 | 90 |
| COc1ccc(C)c(S(=O)(=O)NC(=O)c2cn(C)c(-c3cccnc3Cl)n2)c1 [Example 565] | – | 100 | 100 |
| Cn1cc(C(=O)NS(=O)(=O)c2c(F)cccc2Br)nc1-c1c(F)cccc1F [Example 432] | – | 100 | 100 |
| COc1cccc(S(=O)(=O)NC(=O)c2cn(C)c(-c3c(F)cccc3F)n2)c1 [Example 388] | – | 90 | 100 |
| COc1ccc(F)cc1S(=O)(=O)NC(=O)c1cn(C)c(-c2cccc(Cl)c2Cl)n1 [Example 463] | – | 100 | 100 |
| Cc1ccccc1S(=O)(=O)NC(=O)c1nc(-c2c(F)cccc2F)n(C)n1 [Example 159] | – | 90 | 100 |
